For test [1], the system named is Aspergillus niger. The test is described as follows: Antifungal activity against Aspergillus niger at 50 ug/disk by paper disk method. The format is functional, organism-based.
Test [2] concerns Escherichia coli. The test is described as follows: Antibacterial activity against Escherichia coli NBRC14237 assessed as zone of inhibition at 50 ug/disk by paper disk method. Type of test: functional, organism-based.
Test [3] relates to Salmonella enteritidis. The test can be described thus: Antibacterial activity against Salmonella enteritidis NBRC3313 at 100 ug/disk by paper disk method. Type of test: functional, organism-based. Conditions: Salmonella enterica subsp. enterica serovar Enteritidis.
Test [4] relates to Staphylococcus aureus. The test can be described thus: Antibacterial activity against Staphylococcus aureus […] assessed as zone of inhibition at 50 ug/disk by paper disk method. Type of test: functional, organism-based.
The subject of test [5] is Staphylococcus aureus. The test can be described thus: Antibacterial activity against Staphylococcus aureus […] at 100 ug/disk by paper disk method. Type of test: functional, organism-based.
Test [6] deals with Candida albicans. The test is described as follows: Antimicrobial activity against Candida albicans at 50 ug/disk by paper disk method. Type of test: functional, organism-based.
Test [7] has as its system Cryptococcus neoformans. The test can be described thus: Antimicrobial activity against Cryptococcus neoformans at 50 ug/disk by paper disk method. The format is functional, organism-based.
In test [8] the test system is Aspergillus fumigatus. The test is described as follows: Antifungal activity against Aspergillus fumigatus assessed as zone of inhibition at 6.25 ug/disk by paper disk method. Type of test: functional. To be noted: read-out: IZ.
Test [9] concerns Escherichia coli. The test is described as follows: Antibacterial activity against Escherichia coli NBRC14237 at 100 ug/disk by paper disk method. Type of test: functional, organism-based.
Test [10] has as its system Bacillus subtilis. The test is described as follows: Antibacterial activity against Bacillus subtilis NBRC3134 assessed as zone of inhibition at 50 ug/disk by paper disk method. The format is functional, organism-based.
The subject of test [11] is Salmonella enteritidis. The test can be described thus: Antibacterial activity against Salmonella enteritidis NBRC3313 assessed as zone of inhibition at 50 ug/disk by paper disk method. Conditions: Salmonella enterica subsp. enterica serovar Enteritidis. Type of test: functional, organism-based.
The test system of test [12] is Bacillus subtilis. The test is described as follows: Antibacterial activity against Bacillus subtilis NBRC3134 at 100 ug/disk by paper disk method. The format is functional, organism-based.
In test [13] the test system is Cryptococcus neoformans. The test can be described thus: Antimicrobial activity against Cryptococcus neoformans. The format is functional, organism-based.
Test [14] has as its system Candida albicans. The test is described as follows: Antimicrobial activity against Candida albicans. The format is functional, organism-based.
Test [15] concerns Aspergillus fumigatus. The test can be described thus: Antifungal activity against Aspergillus fumigatus. The format is functional, organism-based.
The subject of test [16] is Aspergillus niger. The test can be described thus: Antifungal activity against Aspergillus niger. The format is functional, organism-based.

Molecules are shown by their SMILES. Activity calls are given as the source filed them. No cut-off for these calls is given here. Non-standard residues stand in square brackets, D forms with d. Residues, ends and D or L forms follow the SMILES beside them. NMeI = CC[C@H](C)[C@H](NC)C(=O)O; NMeD = CN[C@@H](CC(=O)O)C(=O)O; NMeV = CN[C@H](C(=O)O)C(C)C; Pip = O=C(O)[C@@H]1CCCCN1; Lac = C[C@H](O)C(=O)O

On to `CC[C@H](C)[C@H]1C(=O)N[C@@H](CC(=O)O)C(=O)N(C)[C@@H](C(C)C)C(=O)N[C@@H](CC(C)C)C(=O)O[C@@H](C)C(=O)N2CCCC[C@H]2C(=O)N(C)[C@@H](C(C)C)C(=O)N[C@@H](C(C)C)C(=O)N(C)[C@@H](CC(=O)O)C(=O)N(C)[C@@H]([C@@H](C)CC)C(=O)N1C` [EUJAVANICIN A] (cyclo(D[NMeV]L[Lac][Pip][NMeV]V[NMeD][NMeI][NMeI])), for which the result with Aspergillus niger [1], with Escherichia coli [2], in the test on Salmonella enteritidis [3], in the test with Staphylococcus aureus [4], in the test on Staphylococcus aureus [5] and with Candida albicans [6] was inactive. Further, the result with Cryptococcus neoformans [7], with Escherichia coli [9], with Bacillus subtilis [10], with Salmonella enteritidis [11] and with Bacillus subtilis [12] was inactive. Further, the zone of inhibition at 6.25 µg/disc with Aspergillus fumigatus [8] is 23 mm.

In the case of `CC[C@H](C)[C@H]1C(=O)N[C@@H](CC(=O)OC)C(=O)N(C)[C@@H](C(C)C)C(=O)N[C@@H](CC(C)C)C(=O)O[C@@H](C)C(=O)N2CCCC[C@H]2C(=O)N(C)[C@@H](C(C)C)C(=O)N[C@@H](C(C)C)C(=O)N(C)[C@@H](CC(=O)OC)C(=O)N(C)[C@@H]([C@@H](C)CC)C(=O)N1C` (cyclo(D(OMe)[NMeV]L[Lac][Pip][NMeV]V[NMeD](OMe)[NMeI][NMeI])), the result in the test on Cryptococcus neoformans [13], in the test with Salmonella enteritidis [3], in the test on Staphylococcus aureus [5], in the test with Candida albicans [14], in the test on Aspergillus fumigatus [15] and with Aspergillus niger [16] was inactive. Moreover, the result with Escherichia coli [9] and with Bacillus subtilis [12] was inactive.

These data come from ChEMBL document CHEMBL1156658, “Antifungal cyclic depsipeptide, eujavanicin A, isolated from Eupenicillium javanicum” (2008).
